Results from patent US7371734B2, “Oligonucleotide compositions and their use for the modulation of immune responses” (Bioniche Life Sciences Inc., priority 2002, dated 2008).
Marks after values point to notes of the source that are not given here.

How the values were obtained:
Human dendritic cells [1] = assay: Endocytosis of FITC-dextran by DC; assay type: cell-based; settings: DC from individual B, 100 μg, 24 hours, untreated control = 100
Experimental: (§1) Human dendritic cells were obtained from Clonetics (San Diego, Calif., USA) and were cultured in the medium recommended by Clonetics. DC were obtained from three different individuals (see Table 1). Major histocompatability typing was performed on each of these individuals and several of the HLA (human leukocyte antigens) types are shown.
DC from individual B were seeded in 1.0 ml at 1.0×10^5 cells/ml in 6-well flat-bottomed tissue culture plates for 24 hours with 1 mg/ml of FITC-dextran (20 kDa; Sigma-Aldrich) in the absence or presence of 100 μg of 6 base N2A, N2B, N3A, N3B, N5A, N5B, and N6B polynucleotides at 4° C. (control cell surface binding of FITC-dextran) and 37° C. (to assess endocytosis). Cells were washed three times with ice-cold phosphate buffered saline and analyzed by flow cytometry using CELLQuest Pro. Results are expressed as relative endocytic rate (normalized Δ Mean Fluorescence Value (Δ MFV)). Δ MFV=MFV of DC exposed to FITC-dextran at 37° C.−MFV of DC exposed to FITC-dextran at 4° C. Δ MFV=(ΔMFVsequence/ΔMFVcontrol)×100.

Human dendritic cells [2] = assay: MHC-II levels at the DC cell surface (flow cytometry); assay type: cell-based; settings: DC from individual B; 100 μg, 48 hours
Method in brief: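 Dendritic cells from one donor were seeded at 1.0×10^5 cells/ml and treated for 48 h with 100 μg of 6-base polynucleotides. Surface MHC II was then measured by flow cytometry with a FITC-conjugated anti-MHC II antibody. Values are the percentage of MHC II^hi DC.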

Human dendritic cells [3] = assay: Induction of IFN-gamma production by DC (ELISA); assay type: cell-based; settings: 100 μg, 48 hours
Method in brief: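 Dendritic cells from three donors (1.0×10^5 cells/ml) were incubated 48 h with 100 μg of each polynucleotide. IFN-gamma in culture supernatant was measured by ELISA. Values are fold increase over untreated control cells.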

Human dendritic cells [4] = assay: Induction of IL-12 production by DC (ELISA); assay type: cell-based; settings: 100 μg, 48 hours
Method in brief: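 Human DCs from three donors, 1.0×10^5 cells/ml, exposed 48 h to 100 μg of 6-base polynucleotides. IL-12 in culture supernatant measured by ELISA. Values given as fold increase over untreated control cells.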

Human dendritic cells [5] = assay: OX-2 levels at the DC cell surface (flow cytometry); assay type: cell-based; settings: DC from individual A, 48 hours
Experimental: as §1
DC from individual A were seeded in 1.0 ml at 1.0×10^5 cells/ml in 6-well flat-bottomed tissue culture plates for 48 hours with 1, 10 or 100 μg of 6 base N3A or N6A polynucleotides. The level of OX-2 at the cell surface was determined after 48 hours of incubation by flow cytometry using a FITC-conjugated monoclonal antibody directed to OX-2 (BioSPARK, Greenwich, Conn., USA) and analyzed by CELLQuest Pro. […] Results are expressed as the percentage of OX-2^hi DC following treatment.

female BALB/C mice = assay: Oral vaccination with hepatitis surface antigen, anti-HbsAg ELISA; assay type: in vivo; settings: oral day 0, 7, 14, 450 nm; for IgA total at 1:2 dilution, mean ± SD: gut washes day 21; for Total IgG at 1:32 dilution, mean ± SD: plasma day 21
Experimental: Immunization with recombinant hepatitis B surface antigen combined with N6A or N6B polynucleotide was conducted on 6-8 week old female BALB/C mice (Charles River, St-Constant, Qc, Canada). Each mouse (5 mice per group) has received orally a solution containing: Saline (Group 1), HbsAg 10 μg (Group 2), HbsAg 10 μg+N6A 1 μg (Group 3), HbsAg 10 μg+N6A 10 μg (Group 4), HbsAg 10 μg+N6A 100 μg (Group 5), HbsAg 10 μg+N6B 1 μg (Group 6), HbsAg 10 μg+N6B 10 μg (Group 7) and HbsAg 10 μg+N6B 100 μg (Group 8) in a total volume of 50 μl at day 0, 7 and day 14. Plasma and gut washes were recovered at day 21. Gut washes (for IgA determination) were obtained by gently pipetting 0.2 ml of PBS containing protease inhibitors (10 μg pepstatin, 10 μg leupeptin, 10 μg antipain and 50 μg benzamidine).
Antibodies specific to HbsAg were detected and quantified by ELISA. Briefly, a solid phase of HbsAg protein (1.0 μg per well, overnight at 4° C.) was used to capture anti-HbsAg in the plasma or in the gut washes (1 hour at 37° C.), which were then detected with horseradish peroxidase-conjugated goat anti-mouse IgA (for gut washes) and goat anti-mouse total IgG (for plasma) following the instructions of the manufacturer (Clonetyping system, Southern Biotechnology Inc.). Data are expressed in Table 14 in OD (450 nm) as the mean±SD of 5 mice per group. […]

[6] = HbsAg 10 μg + polynucleotide 1 μg
[7] = HbsAg 10 μg + polynucleotide 10 μg
[8] = HbsAg 10 μg + polynucleotide 100 μg

Row | Substance | Relative endocytic rate (normalized Δ MFV) (Human dendritic cells [1]) | The percentage of MHC-II^hi DC following treatment (Human dendritic cells [2]) [%] | IFN-gamma production by DC (fold increase compared to untreated DC) (Human dendritic cells [3]; DC isolated from individual A) [fold] | IFN-gamma production by DC (fold increase compared to untreated DC) (Human dendritic cells [3]; DC isolated from individual B) [fold] | IFN-gamma production by DC (fold increase compared to untreated DC) (Human dendritic cells [3]; DC isolated from individual C) [fold] | IL-12 production by DC (fold increase compared to untreated DC) (Human dendritic cells [4]; DC isolated from individual A) [fold] | IL-12 production by DC (fold increase compared to untreated DC) (Human dendritic cells [4]; DC isolated from individual B) [fold] | IL-12 production by DC (fold increase compared to untreated DC) (Human dendritic cells [4]; DC isolated from individual C) [fold] | The percentage of OX-2^hi DC following treatment (Human dendritic cells [5]; 1.0 μg) [%] | The percentage of OX-2^hi DC following treatment (Human dendritic cells [5]; 10.0 μg) | The percentage of OX-2^hi DC following treatment (Human dendritic cells [5]; 100.0 μg) | IgA total at 1:2 dilution, mean ± SD (female BALB/C mice; [6]) [OD] | Total IgG at 1:32 dilution, mean ± SD (female BALB/C mice; [6]) [OD] | IgA total at 1:2 dilution, mean ± SD (female BALB/C mice; [7]) [OD] | Total IgG at 1:32 dilution, mean ± SD (female BALB/C mice; [7]) [OD] | IgA total at 1:2 dilution, mean ± SD (female BALB/C mice; [8]) [OD] | Total IgG at 1:32 dilution, mean ± SD (female BALB/C mice; [8]) [OD]
1 | 5′GGGTGG3′ [N3A] | 156 | 23 | 1.0 | 1.0 | 1.0 | 1.0 | 1.0 | 1.0 | 61 | 51** % | 51** % | – | – | – | – | – | –
2 | 5′GGGAGG3′ [N6B] (DNA, backbone not given here; further chemistry not fully specified) | 23 | 27 | 1.1 | 1.0 | 1.1 | 1.3 | 1.4 | 4.1 | – | – | – | 0.549 ± 0.242 | 0.104 ± 0.030 | 0.333 ± 0.156 | 0.225 ± 0.135 | 0.492 ± 0.074 | 0.120 ± 0.057
3 | 5′GGGTGG3′ [N3B] | 211 | 25 | 2.0 | 4.5 | 1.3 | 5.2 | 17.3 | 14.4 | – | – | – | – | – | – | – | – | –
4 | 5′GGGAGG3′ [N6A] (unmodified DNA) | – | 25 | 1.0 | 1.0 | 1.0 | 1.0 | 1.0 | 1.0 | 64 | 62% | 64% | 0.662 ± 0.166 | 0.138 ± 0.055 | 0.853 ± 0.543 | 0.141 ± 0.044 | 0.650 ± 0.276 | 0.121 ± 0.055
